Reference: ChEMBL document CHEMBL1687842, “Different genetic elements carrying the tet(W) gene in two human clinical isolates of Streptococcus suis” (2011)
≈ marks a conversion by molar mass, not a printed value.

Assays:
Format in all cases: functional
Streptococcus suis [1] = assay: Antimicrobial activity against Streptococcus suis CA isolated from cerebrospinal fluid of patient with meningitis by broth microdilution method
Streptococcus suis [2] = assay: Antimicrobial activity against Streptococcus suis UD isolated from cerebrospinal fluid of patient with meningitis by broth microdilution method
Streptococcus pyogenes = assay: Ratio of MIC for Streptococcus pyogenes 12RF transconjugant harboring ermB and tetW gene from Streptococcus suis UD to wild type Streptococcus suis UD

Structure (SMILES)	MIC (Streptococcus suis [1]) [µg/mL]	MIC (Streptococcus suis [2]) [µg/mL]	Ratio (Streptococcus pyogenes)
CN(C)[C@@H]1C(O)=C(C(N)=O)C(=O)[C@@]2(O)C(O)=C3C(=O)c4c(O)cccc4[C@@](C)(O)[C@H]3C[C@@H]12 [TETRACYCLINE]	16 (≈ 36 µM)	8 (≈ 18 µM)	
NC[C@H]1O[C@H](O[C@H]2[C@H](O)[C@@H](O[C@H]3O[C@H](CO)[C@@H](O)[C@H](N)[C@H]3O)[C@H](N)C[C@@H]2N)[C@H](O)[C@@H](O)[C@@H]1O [KANAMYCIN]			16
CC[C@H]1OC(=O)[C@H](C)[C@@H](O[C@H]2C[C@@](C)(OC)[C@@H](O)[C@H](C)O2)[C@H](C)[C@@H](O[C@@H]2O[C@H](C)C[C@H](N(C)C)[C@H]2O)[C@](C)(O)C[C@@H](C)C(=O)[C@H](C)[C@@H](O)[C@]1(C)O [ERYTHROMYCIN]	> 256	4 (≈ 5.45 µM)	
CN[C@@H]1[C@H](O[C@H]2[C@H](O[C@H]3[C@H](O)[C@@H](O)[C@H](N=C(N)N)[C@@H](O)[C@@H]3N=C(N)N)O[C@@H](C)[C@]2(O)C=O)O[C@@H](CO)[C@H](O)[C@H]1O [STREPTOMYCIN]			8
